Measured values taken from article PMC7447632, “Highly functionalized β-lactams and 2-ketopiperazines as TRPM8 antagonists with antiallodynic activity” (Scientific Reports, 2020).

Key:
rat TRPM8 channel = biological target: T1, rat TRPM8 channel (Rattus norvegicus, UniProt Q8R455); test: Ca2+ microfluorometry, menthol-induced Ca2+ influx in HEK293 cells expressing rat TRPM8; format: cell-based; details: 100 µM menthol, HEK-rTRPM8; for % Blockade 5 µM: 5 µM compound; for % Blockade 50 µM: 50 µM compound; for IC50: Ca2+ microfluorometry
T1 construct: expressed in transfected cells; host or cells: HEK293 (stably transfected)
Method: The ability to inhibit menthol-induced Ca^2+ intracellular influx into the cytosol on HEK293 cells heterologously expressing the rat TRPM8 channel was measured and compared to that of AMTB, a well-known TRPM8 antagonist. Representative recordings of fluorescence obtained in microfluorometry experiments for selected compounds are in Supplementary Fig. S3.
(§1) Human embryonic kidney cell line (HEK) stably transfected with rTRPM8 or h-TRPV1 were used as previously described. Briefly, cells were seeded in 96-well plates at a cell density of 30,000 cells 2 days before treatment. Buffer used was HBBS (in mM): 138 NaCl, 5.33 KCl, 1.26 CaCl2, 0.5 MgCl-6H2O, 0.4 MgSO4-7H2O, 4 NaHCO3 0.44 KH2PO4, 0.3 Na2HPO4, pH 7.4. The day of treatment the medium was replaced with 100 µL of the dye loading solution Fluo-4 NW supplemented with probenecid 2.5 mM. After incubation, plates were transferred to a fluorescence plate reader (Polastar BMG). In the experimental protocol, the baseline fluorescence was recorded ([…]) for 3 cycles. After, vehicle, compound at different concentrations and the corresponding antagonist, 10 µM AMTB for TRPM8 or 10 µM Ruthenium Red for TRPV1 were added to the well. Fluorescence intensity was recorded during 7 cycles more. Finally, the agonist 100 µM menthol for TRPM8 or 1 µM capsaicin for TRPV1 was added and fluorescence intensity was recorded during 10 cycles more.
The degree of inhibition of TRPM8 channel gating was calculated by comparison to calcium increase signal elicited by test substances and menthol at 100 µM. Decrease of menthol signal was expressed as percentage of inhibition (%). All data are expressed as mean ± standard deviation (SD). Each condition was assessed by triplicate (n = 3) in 3 independent experiments (N = 3). Z-factor was calculated in each assay using the following equation: […]. In all the experiments Z-factor was ≥ 0.5. To calculate IC50, normalized responses (%) versus log [µM] were adjusted to a non-linear fit with variable slope, a four-parameter dose–response curve following curve Y = 100/(1 + 10^((Log IC50-X)*HillSlope)) where […].

hTRPV1 channels = biological target: T2, hTRPV1 channels (Homo sapiens, UniProt Q8NER1); test: Ca2+ microfluorometry in HEK cells expressing hTRPV1 (capsaicin); format: cell-based; details: 1 µM capsaicin; for TRPV1 Blockade (%) 5 µM: 5 µM compound; for TRPV1 Blockade (%) 50 µM: 50 µM compound
T2 construct: expressed in transfected cells; host or cells: HEK (stably transfected)
Method: β-Lactam and 2-ketopiperazine derivatives were also assayed for their activity in cell expressing hTRPV1 channels. No significant antagonist activity was measured for any derivatives within both chemotypes (Supplementary Tables S1, S2, and Fig. S3), indicating their selectivity for TRPM8 channels.
as §1
Table S1. Activity at hTRPV1 of β–lactams derived from phenylalaninol conjugates
Compd. Isomer Isomer TRPV1 Blockade (%)
Table S2. Activity at hTRPV1 of 2-ketopiperazines derived from phenylalaninol

T2 sequence (Q8NER1 whole entry): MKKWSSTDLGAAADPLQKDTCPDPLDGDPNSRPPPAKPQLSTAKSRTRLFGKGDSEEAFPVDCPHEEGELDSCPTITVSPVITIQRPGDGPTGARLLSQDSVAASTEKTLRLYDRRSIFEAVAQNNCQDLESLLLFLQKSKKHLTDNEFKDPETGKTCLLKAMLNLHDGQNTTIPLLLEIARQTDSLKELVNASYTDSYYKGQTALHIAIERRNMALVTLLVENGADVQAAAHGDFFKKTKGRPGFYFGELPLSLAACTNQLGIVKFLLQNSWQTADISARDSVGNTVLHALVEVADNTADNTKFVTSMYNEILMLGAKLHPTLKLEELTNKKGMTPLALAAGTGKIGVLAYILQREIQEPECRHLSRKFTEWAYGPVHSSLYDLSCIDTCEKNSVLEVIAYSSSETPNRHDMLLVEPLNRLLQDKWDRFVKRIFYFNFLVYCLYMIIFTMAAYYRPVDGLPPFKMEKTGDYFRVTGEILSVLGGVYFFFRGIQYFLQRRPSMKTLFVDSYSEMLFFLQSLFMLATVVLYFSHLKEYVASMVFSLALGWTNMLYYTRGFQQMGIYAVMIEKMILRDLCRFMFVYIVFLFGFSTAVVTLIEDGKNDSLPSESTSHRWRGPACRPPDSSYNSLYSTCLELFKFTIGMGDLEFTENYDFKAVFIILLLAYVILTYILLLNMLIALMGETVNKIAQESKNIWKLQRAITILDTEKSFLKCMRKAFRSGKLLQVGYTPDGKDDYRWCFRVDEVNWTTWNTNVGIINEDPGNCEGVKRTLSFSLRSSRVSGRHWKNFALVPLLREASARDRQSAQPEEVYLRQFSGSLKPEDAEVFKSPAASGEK
T1 sequence (Q8R455 whole entry): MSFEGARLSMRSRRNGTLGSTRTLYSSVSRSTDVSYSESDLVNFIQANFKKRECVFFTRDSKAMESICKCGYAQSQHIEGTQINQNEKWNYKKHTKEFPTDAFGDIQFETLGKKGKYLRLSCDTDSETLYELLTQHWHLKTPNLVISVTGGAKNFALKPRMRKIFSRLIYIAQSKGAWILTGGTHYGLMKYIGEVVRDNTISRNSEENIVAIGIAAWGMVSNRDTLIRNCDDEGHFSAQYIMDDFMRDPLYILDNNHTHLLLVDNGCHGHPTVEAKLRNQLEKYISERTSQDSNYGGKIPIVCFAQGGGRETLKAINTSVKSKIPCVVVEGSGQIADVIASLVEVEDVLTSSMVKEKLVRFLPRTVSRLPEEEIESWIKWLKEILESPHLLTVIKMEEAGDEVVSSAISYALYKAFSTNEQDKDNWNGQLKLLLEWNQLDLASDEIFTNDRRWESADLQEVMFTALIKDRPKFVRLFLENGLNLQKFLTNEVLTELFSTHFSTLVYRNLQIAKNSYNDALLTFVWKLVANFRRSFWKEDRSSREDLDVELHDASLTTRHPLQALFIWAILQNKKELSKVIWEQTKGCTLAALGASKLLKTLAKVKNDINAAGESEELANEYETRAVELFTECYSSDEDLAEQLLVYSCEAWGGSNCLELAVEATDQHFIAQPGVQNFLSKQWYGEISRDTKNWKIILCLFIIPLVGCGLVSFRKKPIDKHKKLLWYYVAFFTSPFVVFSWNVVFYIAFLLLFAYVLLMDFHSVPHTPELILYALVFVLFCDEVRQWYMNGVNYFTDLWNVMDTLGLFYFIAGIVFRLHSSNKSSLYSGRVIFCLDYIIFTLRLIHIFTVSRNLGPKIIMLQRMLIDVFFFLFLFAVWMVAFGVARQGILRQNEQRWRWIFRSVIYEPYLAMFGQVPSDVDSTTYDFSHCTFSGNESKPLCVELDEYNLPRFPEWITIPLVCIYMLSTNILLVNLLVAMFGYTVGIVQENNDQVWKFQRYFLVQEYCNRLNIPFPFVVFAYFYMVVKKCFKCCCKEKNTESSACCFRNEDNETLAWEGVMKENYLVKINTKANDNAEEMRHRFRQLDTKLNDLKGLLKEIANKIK

Row | Structure (SMILES) | % Blockade 5 µM (rat TRPM8 channel) [%] | % Blockade 50 µM (rat TRPM8 channel) [%] | IC50 (rat TRPM8 channel) [nM] | TRPV1 Blockade (%) 5 µM (hTRPV1 channels) [%] | TRPV1 Blockade (%) 50 µM (hTRPV1 channels) [%]
1 | O=C(OCc1ccccc1)C(Cc1ccccc1)N1C[C@H](Cc2ccccc2)N(C(=O)OCc2ccccc2)CC1=O (stereo partly drawn) [Compound 21ab] | 70.0 ± 6.8 | 92.5 ± 4.3 | 2000 ± 1500 | 6.2±3.1 | 11.8±1.8
2 | C[C@H]1C(=O)N(C(Cc2ccccc2)C(=O)OCc2ccccc2)C[C@@H](Cc2ccccc2)N1C(=O)OCc1ccccc1 (stereo partly drawn) [Compound 32ab] | 47.4 ± 6.8 | 115.1 ± 4.5 | 17400 ± 1600 | 4.1±2.3 | 6.3±2.3
3 | CC1C(=O)N(C[C@H](Cc2ccccc2)NC(=O)OCc2ccccc2)[C@@]1(Cc1ccccc1)C(=O)OCc1ccccc1 (stereo partly drawn) [Compound 25ab] | 68.2 ± 5.6 | 89.2 ± 9.2 | 3900 ± 1900 | 3.4±1.7 | 4.3±1.1
4 | C[C@H]1C(=O)N(C(Cc2ccccc2)C(=O)OCc2ccccc2)C[C@H](Cc2ccccc2)N1C(=O)OCc1ccccc1 (stereo partly drawn) [Compound 26ab] | 93.5 ± 3.4 | 102.4 ± 1.5 | 2400 | 6.2±1.8 | 7.3±3.2
5 | C[C@@H]1C(=O)N(C[C@@H](Cc2ccccc2)NC(=O)OCc2ccccc2)[C@]1(C)C(=O)OCc1ccccc1 [Compound 39a] | 46.6 ± 11.1 | 100.4 ± 3.5 | 6200 ± 1100 | 2.6±0.9 | 3.2±2.777
6 | CC1C(=O)N(C[C@@H](Cc2ccccc2)NC(=O)OCc2ccccc2)[C@@]1(Cc1ccccc1)C(=O)OCc1ccccc1 (stereo partly drawn) [Compound 31ab] | 91.0 ± 4.3 | 105.0 ± 5.5 | 1600 ± 1300 | 5.7±2.3 | 12.1±1.3
7 | COC(=O)C(Cc1ccccc1)N1C[C@H](Cc2ccccc2)N(C(=O)OCc2ccccc2)CC1=O (stereo partly drawn) [Compound 20ab] | 22.3 ± 5.5 | 61.0 ± 5.6 | 18800 ± 1700 | 12.2±3.1 | 19.3±1.2
8 | CC(C(=O)OCc1ccccc1)N1C[C@@H](Cc2ccccc2)N(C(=O)OCc2ccccc2)[C@H](C)C1=O (stereo partly drawn) [Compound 40ab] | 79.1 ± 3.3 | 107.9 ± 2.5 | 800 ± 1200 | – | –
9 | O=C(N[C@@H](Cc1ccccc1)CN1C(=O)CC1(Cc1ccccc1)C(=O)OCc1ccccc1)OCc1ccccc1 (stereo partly drawn) [Compound 12ab] | 92.3 ± 6.2 | 100.0 ± 3.1 | 1500 ± 1200 | 9.2±1.4 | 15.3±2.8
10 | CC(C(=O)OCc1ccccc1)N1CC(Cc2ccccc2)N(C(=O)OCc2ccccc2)CC1=O (stereo not drawn) [Compound 38ab] | 66.0 ± 3.3 | 105.5 ± 3.2 | 2500 ± 1300 | – | –
11 | O=C(N[C@H](Cc1ccccc1)CN1C(=O)CC1(Cc1ccccc1)C(=O)OCc1ccccc1)OCc1ccccc1 (stereo partly drawn) [Compound 14ab] | 91.0 ± 4.3 | 103 ± 2.7 | 1200 ± 1000 | 4.1±2.4 | 8.7±3.5
